{
  "source": "ChEMBL document CHEMBL2346624",
  "about": "“Pyrrolopyrazines as selective spleen tyrosine kinase inhibitors” (J Med Chem, 2013)",
  "key": {"[1]": {"test_system": "Liver microsomes", "assay": "Metabolic stability in human liver microsomes assessed as GSH adduct formation", "format": "ADME, Microsome"}, "[2]": {"assay": "Metabolic stability in rat liver microsomes", "format": "ADME, Microsome", "details": "read-out: Stability"}, "[3]": {"assay": "Metabolic stability in human liver microsomes", "format": "ADME, Microsome", "details": "read-out: Stability"}, "[4]": {"assay": "Aqueous solubility of the compound by lyophilisate solubility assay", "format": "physicochemical", "details": "buffer"}},
  "data": [
    {"smiles": "CC(C)(C)NC(=O)c1c[nH]c2ncc(-c3n[nH]c4ccc(OC(F)F)cc34)nc12", "values": [
      {"measurement": "Stability", "setting": "[1]", "value": "Stable"},
      {"measurement": "CLhep predicted", "setting": "[2]", "value": 30, "unit": "mL/min/kg"},
      {"measurement": "CLhep predicted", "setting": "[3]", "value": 10, "unit": "mL/min/kg"},
      {"measurement": "solubility", "setting": "[4]", "value": "< 1", "unit": "µg/mL"}
    ]},
    {"smiles": "NC(=O)c1cnc(N[C@@H]2CCCC[C@@H]2N)nc1Nc1cccc(-n2nccn2)c1", "values": [
      {"measurement": "Stability", "setting": "[1]", "value": "Stable"},
      {"measurement": "CLhep predicted", "setting": "[2]", "value": 10, "unit": "mL/min/kg"},
      {"measurement": "CLhep predicted", "setting": "[3]", "value": 3, "unit": "mL/min/kg"},
      {"measurement": "solubility", "setting": "[4]", "value": "< 1", "unit": "µg/mL"}
    ]},
    {"smiles": "CC(C)NC(=O)c1c[nH]c2ncc(-c3nn(C)c4c3CC(C)(C)CC4)nc12", "values": [
      {"measurement": "CLhep predicted", "setting": "[2]", "value": 50, "unit": "mL/min/kg"},
      {"measurement": "CLhep predicted", "setting": "[3]", "value": 19, "unit": "mL/min/kg"},
      {"measurement": "solubility", "setting": "[4]", "value": "< 1", "unit": "µg/mL"}
    ]},
    {"smiles": "COc1cc(Nc2ncc(F)c(Nc3ccc4c(n3)N(COP(=O)(O)O)C(=O)C(C)(C)O4)n2)cc(OC)c1OC", "note": "[FOSTAMATINIB]", "values": [
      {"measurement": "Stability", "setting": "[1]", "value": "Unstable"},
      {"measurement": "CLhep predicted", "setting": "[2]", "value": 47, "unit": "mL/min/kg"},
      {"measurement": "CLhep predicted", "setting": "[3]", "value": 18, "unit": "mL/min/kg"},
      {"measurement": "solubility", "setting": "[4]", "value": "< 1", "unit": "µg/mL"}
    ]},
    {"smiles": "CC(C)(C)NC(=O)c1c[nH]c2ncc(-c3nn(CCC(O)CO)c4ccc(OC(F)F)cc34)nc12", "note": "(stereo unspecified)", "values": [
      {"measurement": "CLhep predicted", "setting": "[2]", "value": 49, "unit": "mL/min/kg"},
      {"measurement": "CLhep predicted", "setting": "[3]", "value": 8, "unit": "mL/min/kg"},
      {"measurement": "solubility", "setting": "[4]", "value": "< 1", "unit": "µg/mL"}
    ]},
    {"smiles": "CC(C)(C)NC(=O)c1c[nH]c2ncc(-c3nn(CCC(O)CO)c4cc(F)ccc34)nc12", "note": "(stereo unspecified)", "values": [
      {"measurement": "CLhep predicted", "setting": "[2]", "value": 23, "unit": "mL/min/kg"},
      {"measurement": "CLhep predicted", "setting": "[3]", "value": 4, "unit": "mL/min/kg"},
      {"measurement": "solubility", "setting": "[4]", "value": "< 1", "unit": "µg/mL"}
    ]},
    {"smiles": "CN(C)CCCn1nc(-c2cnc3[nH]cc(C(=O)NC(C)(C)CO)c3n2)c2cc(OC(F)F)ccc21", "values": [
      {"measurement": "CLhep predicted", "setting": "[2]", "value": 41, "unit": "mL/min/kg"},
      {"measurement": "CLhep predicted", "setting": "[3]", "value": 12, "unit": "mL/min/kg"},
      {"measurement": "solubility", "setting": "[4]", "value": 586, "unit": "µg/mL"}
    ]},
    {"smiles": "CC(C)(C)NC(=O)c1c[nH]c2ncc(-c3nn(CCCS(C)(=O)=O)c4cc(F)ccc34)nc12", "values": [
      {"measurement": "CLhep predicted", "setting": "[2]", "value": 43, "unit": "mL/min/kg"},
      {"measurement": "CLhep predicted", "setting": "[3]", "value": 8, "unit": "mL/min/kg"},
      {"measurement": "solubility", "setting": "[4]", "value": "< 1", "unit": "µg/mL"}
    ]},
    {"smiles": "CN(C)CCCn1nc(-c2cnc3[nH]cc(C(=O)NC(C)(C)C)c3n2)c2cc(OC(F)F)ccc21", "values": [
      {"measurement": "Stability", "setting": "[1]", "value": "Stable"},
      {"measurement": "CLhep predicted", "setting": "[2]", "value": 46, "unit": "mL/min/kg"},
      {"measurement": "CLhep predicted", "setting": "[3]", "value": 9, "unit": "mL/min/kg"},
      {"measurement": "solubility", "setting": "[4]", "value": "< 1", "unit": "µg/mL"}
    ]},
    {"smiles": "CC(C)(C)NC(=O)c1c[nH]c2ncc(-c3n[nH]c4c(CO)cccc34)nc12", "values": [
      {"measurement": "CLhep predicted", "setting": "[2]", "value": 51, "unit": "mL/min/kg"},
      {"measurement": "CLhep predicted", "setting": "[3]", "value": 7, "unit": "mL/min/kg"},
      {"measurement": "solubility", "setting": "[4]", "value": "< 1", "unit": "µg/mL"}
    ]},
    {"smiles": "COc1ccc2cnn(-c3cnc4[nH]cc(C(=O)NC(C)(C)C)c4n3)c2c1", "values": [
      {"measurement": "CLhep predicted", "setting": "[2]", "value": 37, "unit": "mL/min/kg"},
      {"measurement": "CLhep predicted", "setting": "[3]", "value": 11, "unit": "mL/min/kg"},
      {"measurement": "solubility", "setting": "[4]", "value": "< 1", "unit": "µg/mL"}
    ]},
    {"smiles": "C[C@@H](CO)NC(=O)c1c[nH]c2ncc(-c3nn(C)c4cc(Cl)ccc34)nc12", "values": [
      {"measurement": "Stability", "setting": "[1]", "value": "Stable"},
      {"measurement": "CLhep predicted", "setting": "[2]", "value": 47, "unit": "mL/min/kg"},
      {"measurement": "CLhep predicted", "setting": "[3]", "value": 16, "unit": "mL/min/kg"},
      {"measurement": "solubility", "setting": "[4]", "value": "< 1", "unit": "µg/mL"}
    ]},
    {"smiles": "CC(C)(C)NC(=O)c1c[nH]c2ncc(-c3nn(C4CCNCC4)c4cc(F)ccc34)nc12", "values": [
      {"measurement": "Stability", "setting": "[1]", "value": "Stable"},
      {"measurement": "CLhep predicted", "setting": "[2]", "value": 6, "unit": "mL/min/kg"},
      {"measurement": "CLhep predicted", "setting": "[3]", "value": 3, "unit": "mL/min/kg"},
      {"measurement": "solubility", "setting": "[4]", "value": "< 1", "unit": "µg/mL"}
    ]},
    {"smiles": "Cn1nc(-c2cnc3[nH]cc(C(=O)NC(C)(C)C)c3n2)c2cc(OC(F)F)ccc21", "values": [
      {"measurement": "CLhep predicted", "setting": "[2]", "value": 51, "unit": "mL/min/kg"},
      {"measurement": "CLhep predicted", "setting": "[3]", "value": 18, "unit": "mL/min/kg"},
      {"measurement": "solubility", "setting": "[4]", "value": "< 1", "unit": "µg/mL"}
    ]},
    {"smiles": "COc1ccc(Nc2nc(-c3cccc(C(=O)Nc4ccc(C(=O)O)cc4)c3)nc3scnc23)cc1OC", "values": [
      {"measurement": "solubility", "setting": "[4]", "value": "< 1", "unit": "µg/mL"}
    ]},
    {"smiles": "Cn1nc(-c2cnc3[nH]cc(C(=O)N[C@H]4C[C@H](O)C4)c3n2)c2ccc(F)cc21", "values": [
      {"measurement": "CLhep predicted", "setting": "[2]", "value": 43, "unit": "mL/min/kg"},
      {"measurement": "CLhep predicted", "setting": "[3]", "value": 17, "unit": "mL/min/kg"},
      {"measurement": "solubility", "setting": "[4]", "value": "< 1", "unit": "µg/mL"}
    ]},
    {"smiles": "CC(C)(CO)NC(=O)c1c[nH]c2ncc(-n3ncc4ccc(Cl)cc43)nc12", "values": [
      {"measurement": "Stability", "setting": "[1]", "value": "Stable"},
      {"measurement": "CLhep predicted", "setting": "[2]", "value": 35, "unit": "mL/min/kg"},
      {"measurement": "CLhep predicted", "setting": "[3]", "value": 14, "unit": "mL/min/kg"},
      {"measurement": "solubility", "setting": "[4]", "value": "< 1", "unit": "µg/mL"}
    ]}
  ]
}
